# From patent US8119661B2, “Piperidine derivatives and their use as muscarinic receptor modulators” (AstraZeneca AB, priority 2007, dated 2012)
# Experiments:
# cloned human M4 receptor = target: T1, cloned human M4 receptor (Homo sapiens, UniProt P08173); assay: hM4 receptor GTPγS binding; type: biochemical; conditions: CHO membranes expressing hM4, [35S]GTPγS binding
# T1 construct: purchased Perkin-Elmer RBHM4M; host or cells: CHO cell membranes
# T1 sequence (P08173 1-479): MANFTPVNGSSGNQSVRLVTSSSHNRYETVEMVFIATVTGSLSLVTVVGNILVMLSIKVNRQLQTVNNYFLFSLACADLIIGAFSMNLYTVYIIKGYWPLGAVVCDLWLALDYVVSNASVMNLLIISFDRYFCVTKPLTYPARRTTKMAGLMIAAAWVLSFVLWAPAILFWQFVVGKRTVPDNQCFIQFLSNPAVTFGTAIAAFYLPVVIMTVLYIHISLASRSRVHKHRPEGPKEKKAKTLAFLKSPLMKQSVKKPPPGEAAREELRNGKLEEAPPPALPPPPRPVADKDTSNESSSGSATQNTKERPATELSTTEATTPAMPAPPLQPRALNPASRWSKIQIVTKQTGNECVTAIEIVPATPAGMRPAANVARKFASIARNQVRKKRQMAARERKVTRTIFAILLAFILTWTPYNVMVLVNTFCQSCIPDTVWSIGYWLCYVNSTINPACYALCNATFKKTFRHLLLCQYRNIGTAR
# Description: Membranes produced from Chinese hamster ovary cells (CHO) expressing the cloned human M4 receptor (human Muscarinic receptor subtype 4, gene bank access NM_000741), are obtained from Perkin-Elmer (RBHM4M). The membranes are thawed at 37° C., passed 3 times through a 23-gauge blunt-end needle, diluted in the GTPγS binding buffer (50 mM Hepes, 20 mM NaOH, 100 mM NaCl, 1 mM EDTA, 5 mM MgCl2, pH 7.4, 100 μM DTT). The EC50, IC50 and Emax of the compounds of the invention are evaluated from 10-point dose-response curves (three fold concentration range) done in 60 μl in 384-well non-specific binding surface plate (Corning). Ten microliters from the dose-response curves plate (5× concentration) are transferred to another 384 well plate containing 25 μl of the following: 10 μg of hM4 membranes, 500 μg of Flashblue beads (Perkin-Elmer) and GDP 40 μM. An additional 15 μl containing 3.3× (60,000 dpm) of GTPγ^35S (0.4 nM final) are added to the wells resulting in a total well volume of 50 μl. Basal and maximal stimulated [^35S]GTPγS binding are determined in absence and presence of 30 μM final of acetylcholine agonist. The membranes/beads mix are pre-incubated for 15 minutes at room temperature with 40 μM GDP prior to distribution in plates (20 μM final). The reversal of acetylcholine-induced stimulation (10 μM final) of [^35S]GTPγS binding is used to assay the antagonist properties (IC50) of the compounds. The plates are incubated for 60 minutes at room temperature then centrifuged at 400 rpm for 5 minutes. The radioactivity (cpm) is counted in a Trilux (Perkin-Elmer).
# Values of EC50, IC50 and Emax are obtained using sigmoidal fits of a non-linear curve-fitting program (XLfit version 4.2.2 Excel add-in version 4.2.2 build 18 math 1Q version 2.1.2 build 18) of percent stimulated [^35S]GTPγS binding vs. log(molar ligand). All pEC50 and pIC50 values are reported as arithmetic means±standard error of mean of ‘n’ independent experiments.
# [1] = target: T2, hM5 (human Muscarinic receptor subtype 5) (Homo sapiens, UniProt P08912); assay: Human M5 calcium mobilization FLIPR assay; type: cell-based; conditions: CHO cells expressing hM5, intracellular Ca2+ release
# T2 construct: expressed in transfected cells; host or cells: CHO cells (Chinese hamster ovary cells, ATCC)
# T2 sequence (P08912 1-532): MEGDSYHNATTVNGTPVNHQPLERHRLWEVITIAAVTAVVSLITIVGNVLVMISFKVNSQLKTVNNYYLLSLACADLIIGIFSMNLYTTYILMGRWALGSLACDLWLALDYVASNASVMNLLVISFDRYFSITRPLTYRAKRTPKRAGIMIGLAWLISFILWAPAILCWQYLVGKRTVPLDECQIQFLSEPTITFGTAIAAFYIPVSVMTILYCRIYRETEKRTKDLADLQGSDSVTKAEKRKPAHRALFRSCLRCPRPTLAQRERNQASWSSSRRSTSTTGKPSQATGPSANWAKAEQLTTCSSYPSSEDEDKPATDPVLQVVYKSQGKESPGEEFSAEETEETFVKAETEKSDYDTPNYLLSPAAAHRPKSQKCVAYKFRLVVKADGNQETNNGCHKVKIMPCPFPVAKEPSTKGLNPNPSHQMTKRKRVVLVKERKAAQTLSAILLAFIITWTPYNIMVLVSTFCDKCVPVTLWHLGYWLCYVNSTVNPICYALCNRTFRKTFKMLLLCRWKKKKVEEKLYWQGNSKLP
# Description: The compound activity in the present invention (EC50 or IC50) is measured using a 384 plate-based imaging assay that monitors drug induced intracellular Ca^2+ release in whole cells. Activation of hM1 (human Muscarinic receptor subtype 1, gene bank access NM_000738), rM1 (rat Muscarinic receptor subtype 1, gene bank access NM_080773), hM3 (human Muscarinic receptor subtype 3, gene bank access NM_000740NM_000740) and hM5 (human Muscarinic receptor subtype 5, gene bank access NM_0121258), receptors expressed in CHO cells (Chinese hamster ovary cells, ATCC) is quantified in a Molecular Devices FLIPR II™ instrument as an increase in fluorescent signal. Inhibition of hM3 and hM5 by compounds is determined by the decrease in fluorescent signal in response to 2 nM acetylcholine activation.
# Prior to experiment, the cell culture medium is removed from the plates by inversion. […] Plates are incubated at 37° C. for 60 minutes prior to start the experiment. The incubation is terminated by washing the cells four times in assay buffer, leaving a residual 25 μl buffer per well. Cell plates are then transferred to the FLIPR, ready for compound additions.
# The day of experiment, acetylcholine and compounds are diluted in assay buffer in three-fold concentration range (10 points serial dilution) for addition by FLIPR instrument. For all calcium assays, a baseline reading is taken for 10 seconds followed by the addition of 12.5 μl of compounds, resulting in a total well volume of 37.5 μl. Data is collected every second for 60 pictures and then every 6 seconds for 20 pictures prior to the addition of agonist. For hM3 and hM5, before agonist addition, a second baseline reading is taken for 10 seconds followed by the addition of 12.5 μl of agonist or buffer, producing a final volume of 50 μl. After agonist stimulation, the FLIPR continues to collect data every second for 60 pictures and then every 6 seconds for 20 pictures. The fluorescence emission is read using filter 1 (emission 510-570 nm) by the FLIPR on board CCD camera.
# Calcium mobilization output data are calculated as the maximal relative fluorescence unit (RFU) minus the minimal value for both compound and agonist reading frame (except for hM1 and rM1 using only the maximal RFU). Data are analyzed using sigmoidal fits of a non-linear curve-fitting program (XLfit version 4.2.2 Excel add-in version 4.2.2 build 18 math 1Q version 2.1.2 build 18). All pEC50 and pIC50 values are reported as arithmetic means±standard error of mean of ‘n’ independent experiments.
structure (smiles),measurement,setting,value
"C#CCOC(=O)N1CCC(C)(N2CCC(N3C(=O)N[C@H]4CCCC[C@@H]43)CC2)CC1 [Example 17, prop-2-ynyl 4-[4-[(3aS,7aS)-2-oxo-3a,4,5,6,7,7a-hexahydro-3H-benzimidazol-1-yl]-1-piperidyl]-4-methyl-piperidine-1-carboxylate]",EC50,cloned human M4 receptor,> 30 µM
"CCOC(=O)N1CCC(C)(N2CCC(N3C(=O)N[C@H]4CCCC[C@@H]43)CC2)C1 (single isomer, unassigned) [Example 22]",EC50,cloned human M4 receptor,3.47 µM
same,EC50,[1],0.412 µM
"CC(C)OC(=O)N1CCC(C)(N2CCC(N3C(=O)N[C@H]4CCCC[C@@H]43)CC2)CC1 [Example 02, Propan-2-yl 4-[4-[(3aS,7aS)-2-oxo-3a,4,5,6,7,7a-hexahydro-3H-benzoimidazol-1-yl]-1-piperidyl]-4-methyl-piperidine-1-carboxylate]",EC50,cloned human M4 receptor,> 30 µM
same,EC50,[1],> 40 µM
"CC1(N2CCC(N3C(=O)C[C@H]4CCCC[C@@H]43)CC2)CCN(C(=O)C2CC2)CC1 [Example 15, (3aR,7aS)-1-[1-[1-(cyclopropanecarbonyl)-4-methyl-4-piperidyl]-4-piperidyl]-3a,4,5,6,7,7a-hexahydro-3H-indol-2-one]",EC50,cloned human M4 receptor,> 30 µM
same,EC50,[1],> 40 µM
"CC(C)OC(=O)N1CCC(C)(N2CCC(N3C(=O)N[C@@H]4CCCC[C@@H]43)CC2)CC1 (relative stereo) [Example 13, Propan-2-yl 4-[4-[(cis)-2-oxo-3a,4,5,6,7,7a-hexahydro-3H-benzoimidazol-1-yl]-1-piperidyl]-4-methyl-piperidine-1-carboxylate]",EC50,cloned human M4 receptor,> 30 µM
same,EC50,[1],> 40 µM
"CC(C)OC(=O)N1CCC(C)(N2CCC(N3C(=O)C[C@H]4CCCC[C@@H]43)CC2)CC1 [Example 14, Propan-2-yl 4-[4-[(3aR,7aS)-2-oxo-3a,4,5,6,7,7a-hexahydro-3H-indol-1-yl]-1-piperidyl]-4-methyl-piperidine-1-carboxylate]",EC50,cloned human M4 receptor,> 30 µM
same,EC50,[1],> 40 µM
"CCOC(=O)N1CCC(C)(N2CCC(N3C(=O)N[C@H]4CCCC[C@@H]43)CC2)C1 (mixture of isomers) [Example 07, Ethyl 3-[4-[(3aS,7aS)-2-oxo-3a,4,5,6,7,7a-hexahydro-3H-benzoimidazol-1-yl]-1-piperidyl]-3-methyl-pyrrolidine-1-carboxylate]",EC50,cloned human M4 receptor,> 21 µM
same,EC50,[1],1.1 µM
"CCOC(=O)N1CCC(C)(N2CCC(N3C(=O)C[C@@H]4CCCC[C@H]43)CC2)C1 (stereo in doubt) [Example 23, Ethyl 3-[4-[(3aS,7aR)-2-oxo-3a,4,5,6,7,7a-hexahydro-3H-indol-1-yl]-1-piperidyl]-3-methyl-pyrrolidine-1-carboxylate]",EC50,cloned human M4 receptor,17 µM
same,EC50,[1],> 120 µM
"CCOC(=O)N1CCC(C)(N2CCC(N3C(=O)N[C@@H]4CCCC[C@@H]43)CC2)CC1 (relative stereo) [Example 12, Ethyl 4-[4-[(cis)-2-oxo-3a,4,5,6,7,7a-hexahydro-3H-benzoimidazol-1-yl]-1-piperidyl]-4-methyl-piperidine-1-carboxylate]",EC50,cloned human M4 receptor,> 4 µM
same,EC50,[1],0.919 µM
"C#CCOC(=O)N1CCC(C)(N2CCC(N3C(=O)N[C@H]4CCCC[C@@H]43)CC2)C1 (mixture of isomers) [Example 09, Prop-2-ynyl 3-[4-[(3aS,7aS)-2-oxo-3a,4,5,6,7,7a-hexahydro-3H-benzoimidazol-1-yl]-1-piperidyl]-3-methyl-pyrrolidine-1-carboxylate]",EC50,cloned human M4 receptor,> 13 µM
same,EC50,[1],0.313 µM
"CCOC(=O)N1CCC(C)(N2CCC(N3C(=O)N[C@@H]4CCCC[C@H]43)CC2)CC1 [Example 04, Ethyl 4-[4-[(3aR,7aR)-2-oxo-3a,4,5,6,7,7a-hexahydro-3H-benzoimidazol-1-yl]-1-piperidyl]-4-methyl-piperidine-1-carboxylate]",EC50,cloned human M4 receptor,> 6.1 µM
same,EC50,[1],0.586 µM
"CC1(N2CCC(N3C(=O)N[C@H]4CCCC[C@@H]43)CC2)CCN(C(=O)C2CC2)CC1 [Example 03, (3aS,7aS)-1-[1-[1-(cyclopropanecarbonyl)-4-methyl-4-piperidyl]-4-piperidyl]-3a,4,5,6,7,7a-hexahydro-3H-benzoimidazol-2-one]",EC50,cloned human M4 receptor,> 6.5 µM
same,EC50,[1],> 40 µM
"COC(=O)N1CCC(C)(N2CCC(N3C(=O)N[C@H]4CCCC[C@@H]43)CC2)C1 (mixture of isomers) [Example 10, Methyl 3-[4-[(3aS,7aS)-2-oxo-3a,4,5,6,7,7a-hexahydro-3H-benzoimidazol-1-yl]-1-piperidyl]-3-methyl-pyrrolidine-1-carboxylate]",EC50,cloned human M4 receptor,> 30 µM
"CC#CCOC(=O)N1CCC(C)(N2CCC(N3C(=O)N[C@H]4CCCC[C@@H]43)CC2)C1 (single isomer, unassigned) [Example 19]",EC50,cloned human M4 receptor,0.919 µM
"CC1(N2CCC(N3C(=O)N[C@H]4CCCC[C@@H]43)CC2)CCN(C(=O)OCCF)C1 (mixture of isomers) [Example 08, 2-fluoroethyl 3-[4-[(3aS,7aS)-2-oxo-3a,4,5,6,7,7a-hexahydro-3H-benzoimidazol-1-yl]-1-piperidyl]-3-methyl-pyrrolidine-1-carboxylate]",EC50,cloned human M4 receptor,> 30 µM
"CCOC(=O)N1CCC(C)(N2CCC(N3C(=O)N[C@@H]4CCCC[C@H]43)CC2)C1 (mixture of isomers) [Example 11, Ethyl 3-[4-[(3aR,7aR)-2-oxo-3a,4,5,6,7,7a-hexahydro-3H-benzoimidazol-1-yl]-1-piperidyl]-3-methyl-pyrrolidine-1-carboxylate]",EC50,cloned human M4 receptor,> 30 µM
